Tests used:
IL-17A/A = target: T1, IL-17A/A (Homo sapiens, UniProt Q16552); experiment: IL-17A/A HEK-Blue cell assay (SEAP reporter); format: cell-based; details: HEK-Blue IL-17A reporter cells, IL17A/A 5 ng/mL, 20 hours, SEAP read at A630; read-out: HEK-Blue IL17AA (IC50 for IL-17A/A inhibition)
T1 construct: purchased Genscript Z03228
T1 sequence (Q16552 24-155): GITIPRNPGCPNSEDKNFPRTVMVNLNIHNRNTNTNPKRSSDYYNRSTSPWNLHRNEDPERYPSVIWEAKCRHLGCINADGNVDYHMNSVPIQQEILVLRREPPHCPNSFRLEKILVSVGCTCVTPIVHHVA

IL-17A/F = target: T2, IL-17A/F (Homo sapiens, UniProt Q16552+Q96PD4); experiment: IL-17A/F HEK-Blue cell assay (SEAP reporter); format: cell-based; details: HEK-Blue IL-17A reporter cells, IL17A/F 5 ng/mL, 20 hours, SEAP read at A630; read-out: HEK-Blue IL17AF (IC50 for IL-17A/F inhibition)
T2 construct: purchased R&D Systems
T2 sequence (Q16552 24-155): T1 sequence (Q16552 24-155)
T2 sequence (Q96PD4 31-163): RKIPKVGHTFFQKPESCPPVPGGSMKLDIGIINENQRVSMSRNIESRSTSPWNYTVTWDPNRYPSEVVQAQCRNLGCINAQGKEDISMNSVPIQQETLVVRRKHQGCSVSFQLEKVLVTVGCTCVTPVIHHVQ

| SMILES | IC50 (IL-17A/A) | IC50 (IL-17A/F) |
| --- | --- | --- |
| O=C(N[C@H](c1cn2nc(CC3C[C@@H](C(F)(F)F)CNC3=O)c(N3CCOCC3)nc2n1)C1CCC(F)(F)CC1)c1nonc1C1CC1 (single isomer, unassigned) [Compound 20] | < 100 nM | > 1000 nM |
| O=C(N[C@H](c1cn2nc(CC3C[C@@H](C(F)(F)F)CNC3=O)c(N3CCOCC3)nc2n1)C1CCC(F)(F)CC1)c1conc1C1CC1(F)F (single isomer, unassigned) [Compound 115] | < 100 nM | > 1000 nM |
| CCn1nccc1C(=O)N[C@H](c1cn2nc(C[C@H]3C[C@@H](C(F)(F)F)CNC3=O)c([C@H]3CCOC3)nc2n1)C(C1CC1)C1CC1 (single isomer, unassigned) [Compound 321] | < 100 nM | 100 to 1000 nM |
| CCn1nccc1C(=O)N[C@H](c1cn2nc(CC3C[C@@H](C(F)(F)F)CNC3=O)c(N3CCOCC3)nc2n1)[C@H]1CC[C@H](C)CC1 (single isomer, unassigned) [Compound 22] | < 100 nM | 100 to 1000 nM |
| CCn1ccc(C(=O)N[C@H](c2cn3nc(C[C@H]4C[C@@H](C(F)(F)F)CNC4=O)c(C4CCOCC4)nc3n2)C2CCC(F)(F)CC2)n1 [Compound 418, N—((S)-(4,4-difluorocyclohexyl)(2-(((3R,5R)-2-oxo-5-(trifluoromethyl)piperidin-3-yl)methyl)-3-(tetrahydro-2H-pyran-4-yl)imidazo[1,2-b][1,2,4]triazin-6-yl)methyl)-1-ethyl-1H-pyrazole-3-carboxamide] | < 100 nM | > 1000 nM |
| Cc1nonc1C(=O)N[C@H](c1cn2nc(C[C@H]3C[C@@H](C(F)(F)F)CNC3=O)c([C@@H]3CCOC3)nc2n1)C1CCC(F)(F)CC1 (single isomer, unassigned) [Compound 275] | < 100 nM | > 1000 nM |
| CCn1nccc1C(=O)N[C@H](c1cn2nc(C[C@H]3C[C@@H](C(F)(F)F)CNC3=O)c(C3CCOC3)nc2n1)[C@H]1CC[C@H](C)CC1 (single isomer, unassigned) [Compound 139] | < 100 nM | < 100 nM |
| O=C(N[C@H](c1cn2nc(C[C@H]3C[C@@H](C(F)(F)F)CNC3=O)c(C3CCOCC3)nc2n1)C1CCC(F)(F)CC1)c1nonc1C(F)F [Compound 190, N-((1S)-(4,4-difluorocyclohexyl)(2-(((3R,5R)-2-oxo-5-(trifluoromethyl)piperidin-3-yl)methyl)-3-(tetrahydro-2H-pyran-4-yl)imidazo[1,2-b][1,2,4]triazin-6-yl)methyl)-4-(difluoromethyl)-1,2,5-oxadiazole-3-carboxamide] | < 100 nM | > 1000 nM |
| CCn1nccc1C(=O)N[C@H](c1cn2nc(C[C@H]3C[C@@H](C(F)(F)F)CNC3=O)c(C3CCCOC3)nc2n1)[C@@H]1CCCC(F)(F)C1 (single isomer, unassigned) [Compound 71] | < 100 nM | 100 to 1000 nM |
| CCn1nccc1C(=O)N[C@H](c1cn2nc(C[C@@H]3C(=O)NC[C@@H]4C[C@@H]43)c(C3CCOCC3)nc2n1)C1CCC(F)(F)CC1 [Compound 427] | 100 to 1000 nM | > 1000 nM |
| CCn1cnnc1C(=O)N[C@H](c1cn2nc(C[C@H]3C[C@@H](C(F)(F)F)CNC3=O)c(C3CCOCC3)nc2n1)C1CCC(F)(F)CC1 [Compound 415] | 100 to 1000 nM | > 1000 nM |
| CCn1nccc1C(=O)N[C@H](c1cn2nc(C[C@H]3CC(F)(F)CNC3=O)c(C3CCOCC3)nc2n1)C(C1CC1)C1CC1 [Compound 323] | < 100 nM | > 1000 nM |
| Cn1nccc1C(=O)N[C@H](c1cn2nc(C[C@H]3C[C@@H](C(F)(F)F)CNC3=O)c(C3CCOCC3)nc2n1)C1CCCCCC1 [Compound 290, N—((S)-cycloheptyl(2-(((3R,5R)-2-oxo-5-(trifluoromethyl)piperidin-3-yl)methyl)-3-(tetrahydro-2H-pyran-4-yl)imidazo[1,2-b][1,2,4]triazin-6-yl)methyl)-1-methyl-1H-pyrazole-5-carboxamide] | < 100 nM | < 100 nM |
| O=C(N[C@H](c1cn2nc(C[C@H]3C[C@@H](C(F)(F)F)CNC3=O)c(C3CCOCC3)nc2n1)C1CCC(F)(F)CC1)c1conc1C1CC1(F)F (single isomer, unassigned) [Compound 144] | < 100 nM | 100 to 1000 nM |
| CC(C)n1nccc1C(=O)N[C@H](c1cn2nc(C[C@H]3C[C@@H](C(F)(F)F)CNC3=O)c(C3CCOC3)nc2n1)C1CCC(F)(F)CC1 (single isomer, unassigned) [Compound 133] | < 100 nM | 100 to 1000 nM |
| CC(C)n1nccc1C(=O)N[C@H](c1cn2nc(CC3C[C@@H](C(F)(F)F)CNC3=O)c(N3CCOCC3)nc2n1)C1CCC(F)(F)CC1 (single isomer, unassigned) [Compound 79] | < 100 nM | 100 to 1000 nM |
| CCn1ncnc1C(=O)N[C@H](c1cn2nc(C[C@H]3C[C@@H](C(F)(F)F)CNC3=O)c(C3CCOCC3)nc2n1)C1CCCC(F)(F)C1 (stereo in doubt) [Compound 384, N—((S)—((S)-3,3-difluorocyclohexyl)(2-(((3R,5R)-2-oxo-5-(trifluoromethyl)piperidin-3-yl)methyl)-3-(tetrahydro-2H-pyran-4-yl)imidazo[1,2-b][1,2,4]triazin-6-yl)methyl)-1-ethyl-1H-1,2,4-triazole-5-carboxamide] | < 100 nM | > 1000 nM |

Now from value to molecule:

| IC50 (IL-17A/A) | IC50 (IL-17A/F) | SMILES |
| --- | --- | --- |
| 100 to 1000 nM | > 1000 nM | CCn1nccc1C(=O)N[C@H](c1cn2nc(C[C@H]3C[C@@H](C(F)(F)F)CNC3=O)c(C3CCN(CCOC)C3)nc2n1)C1CCC(F)(F)CC1 (stereo partly drawn) [Compound 370, N-((1S)-(4,4-difluorocyclohexyl)(3-(1-(2-methoxyethyl)pyrrolidin-3-yl)-2-(((3R,5R)-2-oxo-5-(trifluoromethyl)piperidin-3-yl)methyl)imidazo[1,2-b][1,2,4]triazin-6-yl)methyl)-1-ethyl-1H-pyrazole-5-carboxamide] |
| 100 to 1000 nM | > 1000 nM | CCn1nccc1C(=O)N[C@H](c1cn2nc(C[C@H]3C[C@@H](C(F)(F)F)CNC3=O)c(CNC)nc2n1)C1CCC(F)(F)CC1 [Compound 286, N—((S)-(4,4-difluorocyclohexyl)(3-((methylamino)methyl)-2-(((3R,5R)-2-oxo-5-(trifluoromethyl)piperidin-3-yl)methyl)imidazo[1,2-b][1,2,4]triazin-6-yl)methyl)-1-ethyl-1H-pyrazole-5-carboxamide] |
| 100 to 1000 nM | > 1000 nM | CC(C)n1nccc1C(=O)N[C@H](c1cn2nc(C[C@H]3C[C@H](C(F)(F)F)CNC3=O)cnc2n1)C1CCC(F)(F)CC1 [Compound 41] |
| < 100 nM | 100 to 1000 nM | CCn1nccc1C(=O)N[C@H](c1cn2nc(C[C@H]3C[C@@H](C(F)(F)F)CNC3=O)c(C[C@@H]3CCOC3)nc2n1)C1CCC(F)(F)CC1 (single isomer, unassigned) [Compound 224] |
| < 100 nM | 100 to 1000 nM | CCn1nccc1C(=O)N[C@H](c1cn2nc(C[C@H]3C[C@@H](C(F)(F)F)CNC3=O)c(CCOC)nc2n1)C1CCC(F)(F)CC1 [Compound 276, N—((S)-(4,4-difluorocyclohexyl)(3-(2-methoxyethyl)-2-(((3R,5R)-2-oxo-5-(trifluoromethyl)piperidin-3-yl)methyl)imidazo[1,2-b][1,2,4]triazin-6-yl)methyl)-1-ethyl-1H-pyrazole-5-carboxamide] |
| < 100 nM | 100 to 1000 nM | CCn1nccc1C(=O)N[C@H](c1cn2nc(C[C@H]3C[C@@H](C(F)(F)F)CNC3=O)c(C3CCn4nccc4C3)nc2n1)C1CCC(F)(F)CC1 (stereo partly drawn) [Compound 358, N-((1S)-(4,4-difluorocyclohexyl)(2-(((3R,5R)-2-oxo-5-(trifluoromethyl)piperidin-3-yl)methyl)-3-(4,5,6,7-tetrahydropyrazolo[1,5-a]pyridin-5-yl)imidazo[1,2-b][1,2,4]triazin-6-yl)methyl)-1-ethyl-1H-pyrazole-5-carboxamide] |
| < 100 nM | > 1000 nM | CCn1nccc1C(=O)N[C@H](c1cn2nc(C[C@H]3C[C@@H](C(F)(F)F)CNC3=O)c(CN3CCOC(C)C3)nc2n1)C1CCC(F)(F)CC1 (stereo partly drawn) [Compound 349, N-((1S)-(4,4-difluorocyclohexyl)(3-((2-methylmorpholino)methyl)-2-(((3R,5R)-2-oxo-5-(trifluoromethyl)piperidin-3-yl)methyl)imidazo[1,2-b][1,2,4]triazin-6-yl)methyl)-1-ethyl-1H-pyrazole-5-carboxamide] |
| < 100 nM | > 1000 nM | CCn1nccc1C(=O)N[C@H](c1cn2nc(C[C@H]3C[C@@H](C(F)(F)F)CNC3=O)c(C3CCCN(C)C3)nc2n1)C1CCC(F)(F)CC1 (single isomer, unassigned) [Compound 403] |
| < 100 nM | 100 to 1000 nM | CCn1nccc1C(=O)N[C@H](c1cn2nc(C[C@H]3C[C@@H](C(F)(F)F)CNC3=O)c(N(C)C)nc2n1)[C@@H]1CCCC(F)(F)C1 [Compound 119, N—((S)—((R)-3,3-difluorocyclohexyl)(3-(dimethylamino)-2-(((3R,5R)-2-oxo-5-(trifluoromethyl)piperidin-3-yl)methyl)imidazo[1,2-b][1,2,4]triazin-6-yl)methyl)-1-ethyl-1H-pyrazole-5-carboxamide] |
| < 100 nM | 100 to 1000 nM | CCn1nccc1C(=O)N[C@H](c1cn2nc(C[C@H]3C[C@@H](C(F)(F)F)CNC3=O)c(C(C)C(F)(F)F)nc2n1)C1CCC(F)(F)CC1 (single isomer, unassigned) [Compound 175] |

— US20260226068A1, “IMIDAZOTRIAZINE IL-17A MODULATORS AND USES THEREOF” (DICE ALPHA, INC., priority 2023, published 2026)
